# Assay results reported in patent US7943568B2, “Antitumor agents” (The Ohio State University Research Foundation, priority 2005, dated 2011).
# “Also recorded” adds a separate entry of the source. Structures can show the parent of a compound that is named as a salt. Where two headings read alike, the source gives them in different places.
# How the values were obtained:
# HDAC = tested on: T1, HDAC; assay type: biochemical; conditions: for IC50: n=3, read-out: IC50, HDAC inhibitory activity; for times more potent as HDAC inhibitors than FK228: relative to FK228
# T1 construct: other: n=3; other: relative to FK228
# Description: To the plasma was added 2 mL acetonitrile to precipitate the proteins. After centrifugation, the acetonitrile layer was transferred to a clean Falcon polypropylene tube and evaporated to dryness under a stream of nitrogen. […] Their HDAC inhibitory activities were assayed by using the Fluor de Lys HDAC Fluorescent Activity Assay/Drug Discovery Kit (BioMol, Plymouth Meeting, Pa.).
# [1] = Distribution of FK228 and metabolites between plasma and RBC after rat whole blood incubation; assay type: in vitro ADME, rat; conditions: for detection in RBC cytosol / homogenate / detection in plasma fraction: FK228 100 μg/mL, rat whole blood, 37° C., 60 min
# Description: After centrifugation, the plasma was removed and the RBC fraction was washed 8 times with 2 mL saline each. […] The RBC debris was further washed with 1 mL acetonitrile each 8 times.
# The blood was centrifuged to remove plasma. To the RBC fraction was added blank rat plasma to restore the initial volume, and the mixture was homogenized by a glass tissue grinder (400 strokes). The plasma and RBC homogenates were analyzed by ESI ion-trap LC-MS. A Waters Spherisorb S3 ODS1 column (2 mm ID×10 cm, particle 5 μm, Waters Corporation, Milford, Mass., USA) with a gradient elution was used. The gradient was initiated with 25% acetonitrile in 0.1% acetic acid for 5 minutes, followed by a linear increase to 70% acetonitrile over 5 minutes, which was kept constant for 15 minutes. The mobile phase was then returned linearly to the original condition over 3 minutes, which was then maintained for 7 minutes. The cycle time for each analysis was 35 minutes.
# [2] = Formation kinetics of FK228 metabolites in rat plasma containing 10 mM GSH; assay type: in vitro ADME; conditions: for time to plateau or maximum concentration: FK228 100 μg/mL, 37° C.; for half-life at 100 μg/mL: rat, plasma
# Excerpt: Serial samples were removed at pre-selected time points up to […]. FK228 and its major metabolites were monitored by ESI LC_MS on the API instrument.
# RBC GSH = RBC GSH depletion by DEM pretreatment in the rat; assay type: in vivo
# [3] = i.v. bolus, for 250 g rats; cited from earlier work
# Pgp [4] = target: T2, Pgp (Homo sapiens, UniProt P08183); conditions: multiple cellular models
# T2 sequence (P08183 whole entry): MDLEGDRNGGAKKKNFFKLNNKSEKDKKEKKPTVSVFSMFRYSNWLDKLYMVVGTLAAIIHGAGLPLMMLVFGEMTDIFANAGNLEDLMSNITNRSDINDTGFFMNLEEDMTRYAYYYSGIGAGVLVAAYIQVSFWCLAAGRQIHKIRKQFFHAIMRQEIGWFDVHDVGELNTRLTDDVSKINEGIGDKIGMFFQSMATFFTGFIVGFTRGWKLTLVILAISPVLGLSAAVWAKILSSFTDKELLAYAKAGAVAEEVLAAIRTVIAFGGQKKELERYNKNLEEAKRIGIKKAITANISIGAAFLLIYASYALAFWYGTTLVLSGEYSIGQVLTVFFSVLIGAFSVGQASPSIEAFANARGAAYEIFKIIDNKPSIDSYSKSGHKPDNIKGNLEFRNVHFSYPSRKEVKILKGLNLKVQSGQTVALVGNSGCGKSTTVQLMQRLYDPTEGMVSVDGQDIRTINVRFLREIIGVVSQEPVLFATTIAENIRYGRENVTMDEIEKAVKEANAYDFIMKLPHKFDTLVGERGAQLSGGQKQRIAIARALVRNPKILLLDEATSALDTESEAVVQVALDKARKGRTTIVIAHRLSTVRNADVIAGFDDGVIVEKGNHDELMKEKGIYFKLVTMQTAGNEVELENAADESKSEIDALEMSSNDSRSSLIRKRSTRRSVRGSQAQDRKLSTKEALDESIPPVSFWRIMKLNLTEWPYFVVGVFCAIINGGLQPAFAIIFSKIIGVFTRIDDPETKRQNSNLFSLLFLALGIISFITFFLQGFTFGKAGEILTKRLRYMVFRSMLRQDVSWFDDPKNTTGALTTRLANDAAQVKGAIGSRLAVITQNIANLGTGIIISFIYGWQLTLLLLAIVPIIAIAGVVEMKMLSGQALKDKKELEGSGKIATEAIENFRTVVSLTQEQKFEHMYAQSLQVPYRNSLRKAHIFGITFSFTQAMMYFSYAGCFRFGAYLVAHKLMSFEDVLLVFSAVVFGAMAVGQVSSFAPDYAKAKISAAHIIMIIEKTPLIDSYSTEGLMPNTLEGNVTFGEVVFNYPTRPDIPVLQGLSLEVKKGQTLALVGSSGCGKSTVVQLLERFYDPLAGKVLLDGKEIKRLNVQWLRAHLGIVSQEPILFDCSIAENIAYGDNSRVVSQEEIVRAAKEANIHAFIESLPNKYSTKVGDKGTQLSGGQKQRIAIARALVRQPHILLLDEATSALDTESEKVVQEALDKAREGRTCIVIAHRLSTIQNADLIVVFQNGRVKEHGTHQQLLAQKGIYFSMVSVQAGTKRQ
# [5] = target: multidrug resistant-associated protein 1 (MRP1) (Homo sapiens, UniProt P33527); conditions: multiple cellular models
# Sequence of multidrug resistant-associated protein 1 (MRP1) (P33527 whole entry): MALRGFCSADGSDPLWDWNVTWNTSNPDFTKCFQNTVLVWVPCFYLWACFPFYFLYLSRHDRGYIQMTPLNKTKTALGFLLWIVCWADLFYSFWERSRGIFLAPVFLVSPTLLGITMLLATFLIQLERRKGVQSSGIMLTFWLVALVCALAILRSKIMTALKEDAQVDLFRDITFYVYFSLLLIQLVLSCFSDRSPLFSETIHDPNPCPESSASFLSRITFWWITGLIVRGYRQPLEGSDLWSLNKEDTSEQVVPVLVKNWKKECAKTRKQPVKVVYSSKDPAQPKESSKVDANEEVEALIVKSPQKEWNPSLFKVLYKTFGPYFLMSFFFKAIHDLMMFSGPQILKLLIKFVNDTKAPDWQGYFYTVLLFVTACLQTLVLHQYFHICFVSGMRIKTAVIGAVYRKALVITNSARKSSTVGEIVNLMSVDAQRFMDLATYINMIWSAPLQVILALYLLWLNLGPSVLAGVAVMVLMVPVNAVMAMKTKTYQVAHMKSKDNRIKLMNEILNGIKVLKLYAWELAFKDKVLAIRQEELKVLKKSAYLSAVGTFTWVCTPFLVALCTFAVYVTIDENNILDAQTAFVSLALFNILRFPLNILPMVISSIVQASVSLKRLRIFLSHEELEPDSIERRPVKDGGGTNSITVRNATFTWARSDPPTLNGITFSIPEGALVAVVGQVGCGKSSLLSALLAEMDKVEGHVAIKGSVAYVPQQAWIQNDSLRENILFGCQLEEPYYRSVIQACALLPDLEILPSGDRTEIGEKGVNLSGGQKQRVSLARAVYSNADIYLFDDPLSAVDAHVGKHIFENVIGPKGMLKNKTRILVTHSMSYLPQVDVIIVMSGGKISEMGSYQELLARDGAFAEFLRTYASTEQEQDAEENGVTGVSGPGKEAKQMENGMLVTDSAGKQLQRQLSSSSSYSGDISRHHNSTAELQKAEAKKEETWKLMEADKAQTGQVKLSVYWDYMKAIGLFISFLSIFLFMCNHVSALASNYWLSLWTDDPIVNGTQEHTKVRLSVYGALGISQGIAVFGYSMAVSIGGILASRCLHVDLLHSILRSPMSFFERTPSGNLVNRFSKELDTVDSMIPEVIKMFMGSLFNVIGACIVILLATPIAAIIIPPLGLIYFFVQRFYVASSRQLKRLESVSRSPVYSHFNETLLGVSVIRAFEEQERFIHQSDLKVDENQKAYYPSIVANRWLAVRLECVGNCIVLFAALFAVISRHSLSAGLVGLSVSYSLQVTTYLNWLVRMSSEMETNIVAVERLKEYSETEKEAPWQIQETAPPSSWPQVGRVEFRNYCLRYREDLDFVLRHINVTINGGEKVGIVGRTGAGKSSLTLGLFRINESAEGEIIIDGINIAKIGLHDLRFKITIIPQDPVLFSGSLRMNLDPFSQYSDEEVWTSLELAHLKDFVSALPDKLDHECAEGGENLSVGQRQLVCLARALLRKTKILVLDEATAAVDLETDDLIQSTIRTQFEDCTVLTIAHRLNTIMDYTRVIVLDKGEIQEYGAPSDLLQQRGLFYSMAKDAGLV
# [6] = In vitro rat blood distribution / RBC uptake of FK228
# [7] = patients, 4-hour infusion; cited from earlier work
# [8] = Rat pharmacokinetics of FK228; assay type: in vivo; conditions: for AUC(0-inf) / Cmax / MRT / clearance / Vd: male, Sprague-Dawley, plasma, iv; for clearance: read-out: Cltotal; for Vd: read-out: Vdss
# Description: (§1) Pharmacokinetics and tissue distribution studies in the rat Twenty-three male S.D. rates weighing 250-300 g were divided into 5 groups. All rats were cannulated by the left jugular vein under ketamine anesthesia (im, 100 mg/kg) for drug administration and/or blood sampling. The rats were kept in metabolism cages and allowed to recover overnight with food and water given ad libitum. The animal protocols were approved by the Institutional Laboratory Animal Care and Use Committee (ILACUC) of the Ohio State University Laboratory Animal Resources (ULAR), and adhered to the guideline and “Principles of Laboratory Animal Care” by National Institutes of Health (NIH).
# (§2) At the time schedule of predose, 5, 10, 20, […], 60, 120, 180, 300 minutes after doing, blood samples of 0.2 mL each were withdrawn from the same cannula with an equal volume of normal saline. Plasma was separated immediately by centrifugation (10,000 g×0.5 min.) extracted with 10-volume ethyl acetate. After centrifugation, the organic layer was transferred into a clean conical Falcon polypropylene tube, and evaporated under a stream of nitrogen. […] Weighed wet organ tissue samples were homogenized in appropriate volumes of blank human plasma with an Ultra-Turrax SDT1610 electric homogenizer (Tekmar, Cincinnati, Ohio) at the highest speed setting for 10 seconds 4 times. […] The homogenates were then extracted and determined as in plasma samples (Chan, et al. 1997; Li and Chan, 2000). Feces samples were homogenized similarly as above. After centrifugation, the supernatant was extracted and determined as plasma samples.
# (§3) A 2 mm×50 mm Keystone BetaBasic-C8 column (Keystone, Bellefonte, Pa.) and an isocratic elution were used with the mobile phase consisting of 70% acetonitrile and 0.1% acetic acid at a flow rate of 0.2 mL/min. The flow leaving the HPLC column was split in a ratio of 20:1, with only 10 μL/min. entering the mass spectrometer. All samples were determined by individual calibration curves using specific blank sample matrix. […] While the recoveries from rat muscle and fat samples were further normalized to whole body weight assuming the muscle and fat compose 40 and 4% of the rat total body weight, respectively (Davies and Morris, 1993).
# [9] = FK228 stability and protein binding in human plasma; assay type: in vitro ADME
# Pgp [10] = target: T2, Pgp; conditions: earlier finding; cited from earlier work
# [11] = Tissue distribution and dose recovery (mass balance) of FK228 in the rat; assay type: in vivo; conditions: for dose excreted: male, Sprague-Dawley, intravenous
# Description: as §1, §2, §3
# [12] = after 1 hour whole blood incubation at 37° C.
# [13] = rat plasma containing 10 mM GSH
# [14] = 2 mg/kg, I.v. bolus (n = 6), 2 mg/kg
# [15] = I.v. bolus with CsA pretreatment (n = 3)
# [16] = I.v. bolus with DEM pretreatment (n = 5)
structure (smiles),measurement,setting,value
CC(C)C1NC(=O)CC(/C=C\CCSSCC(NC(=O)CCC(N)C(=O)O)C(=O)NCC(=O)O)OC(=O)C(C(C)C)NC(=O)C2NC(=O)C(CSC2C)NC1=O (centres unmarked) [metabolite D],IC50,HDAC,15.9 ± 2.7 nM
same,detection in RBC cytosol / homogenate,[1],detected
same,detection in plasma fraction,[1],detected
same,fate in rat RBC,[1]; [12],remained in rat RBC
same,time to plateau or maximum concentration,[2]; [13],1 h
CC(C)C1NC(=O)CC(/C=C/CCS)OC(=O)C(C(C)C)NC(=O)C2NC(=O)C(CSC2C)NC1=O (centres unmarked) [metabolite B],IC50,HDAC,0.94 ± 0.14 nM
same,times more potent as HDAC inhibitors than FK228,HDAC,≥ 82 times
same,detection in RBC cytosol / homogenate,[1],detected
same,detection in plasma fraction,[1],detected
same,fate in rat RBC,[1]; [12],remained in rat RBC
same,stability of metabolite,"[2]; rat plasma containing 10 mM GSH, in words",instable
same,half-life at 100 μg/mL,[2]; read-out: terminal half life,14.4 min
"CCOC(=O)/C=C\C(=O)OCC [DEM, diethyl maleate]",depletion of RBC GSH,RBC GSH,50%
C/C=C1\NC(=O)C(CS)NC(=O)C(C(C)C)NC(=O)CC(/C=C/CCS)OC(=O)C(C(C)C)NC1=O (centres unmarked) [metabolite A],IC50,HDAC,1.65 ± 0.24 nM
same,times more potent as HDAC inhibitors than FK228,HDAC,at least 46 times
same,fate in rat RBC,[1],pumped out of rat RBC
same,half-life at 100 μg/mL,[2],18.5 min
CC(C)C1NC(=O)CC(/C=C/CCS)OC(=O)C(C(C)C)NC2(O)SCC(NC1=O)C(=O)NC2C(C)SCC(NC(=O)CCC(N)C(=O)O)C(=O)NCC(=O)O (centres unmarked) [metabolite F],detection in plasma fraction,[1],detected
same,fate in rat RBC,[1]; [12],pumped out of rat RBC
CC(C)C1NC(=O)CC2/C=C/CCSSCC(NC1=O)C(=O)NC(C(C)SCC(NC(=O)CCC(N)C(=O)O)C(=O)NCC(=O)O)C(=O)NC(C(C)C)C(=O)O2 (centres unmarked) [metabolite E],detection in RBC cytosol / homogenate,[1],detected; also recorded: minor peak
same,detection in plasma fraction,[1],minor peak
same,time to plateau or maximum concentration,[2]; [13],2 h
"C/C=C1\NC(=O)[C@H]2CSSCC/C=C/[C@H](CC(=O)N[C@H](C(C)C)C(=O)N2)OC(=O)[C@H](C(C)C)NC1=O [FK228, (E)-(1S,4S,10S,21R)-7-[(Z)-ethylidene]-4,21-diisopropyl-2-oxz-12,13-dithia-5,8,20,23-tetraazabicyclo[8,7,6]-tricos-16ene-3,6,9,19,22-pentanone]",distribution volume,[3],22.3 ± 7.3 L/kg
same,total body clearance,[3],425.3 ± 117.7 mL/min
same,Pgp substrate,Pgp [4],substrate
same,MRP1 substrate,[5],substrate
same,"recovery at 1 h, 10 μg/mL","[6]; male, Sprague-Dawley, rat, fresh heparinized whole blood",< 35%
same,plasma FK228 remaining,"[6]; rat blood at 37° C., within 2 minutes, 0.1-10 μg/mL",over 20%
same,maximum tolerated dose (MTD),[7],17.8 mg/m^2
same,plasma FK228 concentrations,[8]; following i.v. infusion,< 20 nM
same,AUC(0-inf),"[8]; 2 mg/kg, I.v. bolus (n = 6)",0.0683 µM·h
same,Cmax,"[8]; 2 mg/kg, I.v. bolus (n = 6)",490 ± 164 nM
same,MRT,"[8]; 2 mg/kg, I.v. bolus (n = 6)",36.3 min
same,clearance,[8]; [14],237 ± 58 mL/min
same,Vd,[8]; [14],32.7 ± 4.51 L/kg
same,Cmax,"[8]; 2 mg/kg, I.v. infusion (n = 6)",25.3 ± 3.7 nM
same,MRT,"[8]; 2 mg/kg, I.v. infusion (n = 6)",17.7 min
same,Vd,"[8]; 2 mg/kg, I.v. infusion (n = 6)",10.8 ± 2.7 L/kg
same,AUC(0-inf),[8]; [15],0.0667 µM·h
same,Cmax,[8]; [15],548 ± 249 nM
same,MRT,[8]; [15],27 min
same,clearance,[8]; [15],249 ± 18 mL/min
same,Vd,[8]; [15],29 ± 3.2 L/kg
same,AUC(0-inf),[8]; [16],0.0903 µM·h
same,MRT,[8]; [16],30 min
same,Cmax,"[8]; I.v. bolus with DEM pretreatment (n = 5), called C0 in text",1180 ± 637 nM
same,clearance,[8]; [16],276 ± 152 mL/min
same,Vd,[8]; [16],22.4 ± 13 L/kg
same,AUC(0-inf),[8]; I.v. infusion (n = 6),0.103 µM·h
same,clearance,[8]; I.v. infusion (n = 6),179 ± 27.5 mL/min
same,Vd,[8]; I.v. infusion (n = 6),11.8 ± 2.7 L/kg
same,binding to plasma proteins,[9],over 90%
same,stability,[9],stable
same,P-glycoprotein substrate,Pgp [10],substrate
same,total amount of FK228 in 24-hour urine and 6-hour bile,[11],less than 11 % of the dose
same,total recovery of intact FK228 from 9 major organ tissues,[11]; 6 hours,2.5±1.26%
same,total recovery of intact FK228 from 9 major organ tissues,[11]; 24 hours,0.56±0.3%
same,dose excreted,"[11]; bile, n=3, read-out: dose recovery from 6 hour bile",4.76 ± 0.34%
same,dose excreted,"[11]; urine, 2 mg/kg, n=6, read-out: dose recovery from 24 hour urine",5.9 ± 1.6%
